According to patent US20050153930A1, “Inhibition of a novel calcium injury current that forms in nuerons during injury prevents neuronal cell death” (Robert J. DeLorenzo, priority 2000, published 2005):
“Also recorded” adds a separate entry of the source. Structures can show the parent of a compound that is named as a salt. Where two headings read alike, the source gives them in different places.

How the values were obtained:
Format in all cases: cell-based, rat
[1] = tested on: hippocampal neurons in culture; assay: Neuronal cell death / survival after excitotoxic glutamate, aging or chronic glutamate injury; conditions: for neuronal cell death produced by excitotoxic glutamate exposure: acute excitotoxic injury, treatment after injury
[2] = tested on: hippocampal neurons in culture; assay: Extended neuronal depolarization (END), membrane potential recording after excitotoxic glutamate exposure
[3] = tested on: hippocampal neurons in culture; assay: Intracellular calcium measurement (Indo-1 / Fura-FF) after excitotoxic glutamate exposure; conditions: for prolonged elevation of intra cellular calcium / entry of extra cellular calcium following injury: after excitotoxic glutamate exposure
[4] = tested on: Injury Induced Calcium Channel (IICC); assay: Voltage clamp current/voltage relationship of the injury induced calcium current
[5] = administered alone or in combination (without gadolinium) after the 10 minute glutamate exposure
[6] = applied in wash after 10 min 100 uM glutamate + 10 uM glycine
[7] = chronically administered during aging of neurons
[8] = chronic exposure during numerous minor chronic glutamate injuries
[9] = neurons in END after excitotoxic glutamate, voltage steps -90 to +60 mV

`CCN(CC)Cc1nccn1-c1ccc([N+](=O)[O-])cc1C(=O)c1ccccc1Cl` [nizofenone] was tested, and the neuronal survival [1, 5] was “had no significant effect on neuronal survival”.
`O=C(O)CCCCC1CCSS1` (stereo not drawn) [alpha-lipoate, 1,2-dithiolane-3-pentanoic acid] was tested, and the neuronal survival [1, 5] was “had no significant effect on neuronal survival”.
dilauryl ascorbate was tested, and the neuronal survival [1] was “had no significant effect on neuronal survival”.
For `CC1=C(/C=C/C(C)=C/C=C/C(C)=C/C=C/C=C(C)/C=C/C=C(C)/C=C/C2=C(C)CCCC2(C)C)C(C)(C)CCC1` [beta-carotene], the neuronal survival [1, 5] was “had no significant effect on neuronal survival”.
For `COc1ccc(CCCOC(Cn2ccnc2)c2ccc(OC)cc2)cc1` (stereo not shown) [SKF-96365, reference compound], the “reversal of END” value [2, 6] was “had no effect on reversing END”.
`CCCCCCCCCCCCCCCC(=O)OC[C@H](O)[C@H]1OC(=O)C(O)=C1O` [ascorbyl palmitate] was tested, and the neuronal survival [1, 5] was “had no significant effect on neuronal survival”.
For `[Cl][Gd]([Cl])[Cl]` [gadolinium, gadolinium chloride], the “prolonged elevation of intra cellular calcium / entry of extra cellular calcium following injury” value [3] was “able to block the extra cellular calcium entering from the bathing solution; also recorded: blocked by gadolinium”, the “prolonged elevation of intra cellular calcium / entry of extra cellular calcium following injury” value ([3]; listed as Gadolinium) was “effective in reversing the prolonged elevation of intra cellular calcium” and the “calcium entry and accumulation” value ([3]; chronic administration, chronic injury model) was “blocked calcium entry and accumulation”. The calcium entry [3, 7] was “blocked calcium entry”, the “time for intra cellular calcium to return to baseline levels” value ([3]; gadolinium in wash after excitotoxic glutamate, controls sustained at approximately 1-2 uM (indo-1)) was 30 to 40 min and the “neuronal cell death produced by excitotoxic glutamate exposure” value [1] was “effective in reversing”. The “neuronal cell death produced by excitotoxic glutamate exposure” value ([1]; listed as Gadolinium) was “prevention of delayed neuronal cell death”, the “life span of neurons / cell death associated with aging” value ([1]; administered chronically to neurons as they aged) was “effective in significantly increasing the life span of the neurons; also recorded: prolonged the life of the neurons” and the “neuronal cell death from chronic injury” value [1, 8] was “prevented the gradual production of neuronal cell death”. The neuronal cell death ([1]; excitotoxic injury in the presence of gadolinium) was “did not die”, the “reversal of END” value [2, 6] was “blocked by gadolinium; also recorded: effective in reversing END” and the “reversal of END” value ([2]; applied in wash after 10 min 100 uM glutamate + 10 uM glycine, listed as Gadolinium) was “as effective as zero calcium in reversing END; also recorded: able to reverse END as well as zero calcium”. For the same compound, the “development of END” value ([2]; chronic administration, chronic injury model (multiple minor glutamate exposures)) was “blocked calcium entry and accumulation and the development of END”, the “development of END” value [2, 7] was “blocked calcium entry and the development of END” and the “time for END to return to baseline levels” value ([2]; gadolinium in wash after excitotoxic glutamate, controls manifested END for greater than one hour) was 30 to 40 min. The “formation of IICCs” value [4, 8] was “blocked the formation of IICCs”, the “development of IICCs” value ([4]; given chronically to aging neurons) was “blocked the development of IICCs” and the “effect on IICC current (calcium injury current)” value [4, 9] was “inhibited the IICC current”. The “effect on IICC current (calcium injury current)” value ([4]; neurons in END after excitotoxic glutamate, voltage steps -90 to +60 mV, listed as Gadolinium) was “effectively inhibited the IICC current” and the “effect on IICC current (calcium injury current)” value ([4]; neurons in END after excitotoxic glutamate, voltage steps -90 to +60 mV, listed as gadolinium chloride) was “returns the neuron from END to baseline (control) conditions”.
`NS(=O)(=O)c1cccc2c1c([N+](=O)[O-])cc1nc(O)c(O)nc12` [NBQX, reference compound] was tested, and the “effect on IICC current (calcium injury current)” value [4, 9] was “None of the glutamate receptor antagonists had any effect”.
With `Cc1c(C)c2c(c(C)c1O)CC[C@@](C)(CCC[C@H](C)CCC[C@H](C)CCCC(C)C)O2` [vitamin E, alpha-tocopherol] the neuronal survival [1, 5] was “had no significant effect on neuronal survival”.
`[Cl-].[Cl-].[Zn+2]` [zinc chloride, reference compound] was tested, and the “reversal of END” value ([2]; 5 uM, after excitotoxic glutamate exposure) was “did not prevent END” and the “reversal of END” value ([2]; 5 uM, after excitotoxic glutamate exposure, listed as zinc) was “had no effect in reversing END”.
With `[Cd]` [cadmium, reference compound] the “effect on IICC current (calcium injury current)” value [4] was “None of these calcium channel blockers had any effect”.
In the case of `O=C1O[C@H]([C@@H](O)CO)C(O)=C1O` [vitamin C, ascorbic acid], the neuronal survival [1] was “had no significant effect on neuronal survival”.
With `C[C@H]1C[C@@H]2[C@H]([C@@H](O)C[C@@]3(C)[C@H]2CC[C@]3(O)C(=O)CO)[C@@]2(C)C=CC(=O)C=C12` [methlyprednisolone] the neuronal survival [1, 5] was “had no significant effect on neuronal survival”.
For `C[C@@H]1C[C@H]2[C@@H]3CCC4=CC(=O)C=C[C@]4(C)C3=CC[C@]2(C)[C@H]1C(=O)CN1CCN(c2cc(N3CCCC3)nc(N3CCCC3)n2)CC1` [tirilazad mesylate], the neuronal survival [1, 5] was “had no significant effect on neuronal survival”.
`N[C@@H](CCCP(=O)(O)O)C(=O)O` [APV, reference compound] was tested, and the “effect on IICC current (calcium injury current)” value [4, 9] was “None of the glutamate receptor antagonists had any effect”.
`N#Cc1cc2[nH]c(=O)c(=O)[nH]c2cc1[N+](=O)[O-]` [CNQX, reference compound] was tested, and the “effect on IICC current (calcium injury current)” value [4, 9] was “None of the glutamate receptor antagonists had any effect”.
heparin was tested, and the neuronal survival [1, 5] was “had no significant effect on neuronal survival”.
For `O=c1ccc2ccccc2o1` [coumarin], the neuronal survival [1, 5] was “had no significant effect on neuronal survival”.
`CC(C)COCC(CN(Cc1ccccc1)c1ccccc1)N1CCCC1` (stereo not shown) [Bepridil, reference compound] was tested, and the “reversal of END” value [2, 6] was “did not block END; also recorded: had no effect in reversing END” and the “effect on IICC current (calcium injury current)” value [4] was “had no effect on blocking the observed calcium injury current”.
